From the supplement of paper PMC8612539

Test system: Histophilus somni
Assay: minimum inhibitory concentration (MIC)
Protocol: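 Broth microdilution MIC (Sensititre BOPO7F bovine plate, CLSI methods) of 19 antimicrobials against field isolates of P. multocida, M. haemolytica, H. somni (deep nasopharyngeal swabs) and E. coli, Enterococcus spp. (rectal swabs) from weaned dairy heifers. Incubation 16-24 h at 35 C. MIC is the lowest concentration preventing visible growth. Values with <= or > lie at the tested range limits. Trimethoprim-sulfamethoxazole is given as the trimethoprim component of a 1:19 mixture.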

Measured: minimum inhibitory concentration

CCN1CCN(c2cc3c(cc2F)c(=O)c(C(=O)O)cn3C2CC2)CC1 [Enrofloxacin]
≤ 0.12 µg/mL: isolate (source animal id): 3 | isolate (source animal id): 4 | isolate (source animal id): 7 | isolate (source animal id): 14 | isolate (source animal id): 15 | isolate (source animal id): 17 | isolate (source animal id): 18 | isolate (source animal id): 20 | isolate (source animal id): 23 | isolate (source animal id): 45 | isolate (source animal id): 53 | isolate (source animal id): 83 | isolate (source animal id): 88 | isolate (source animal id): 92 | isolate (source animal id): 93 | isolate (source animal id): 99 | isolate (source animal id): 100 | isolate (source animal id): 105 | isolate (source animal id): 107 | isolate (source animal id): 108 | isolate (source animal id): 109 | isolate (source animal id): 110 | isolate (source animal id): 117 | isolate (source animal id): 121 | isolate (source animal id): 123 | isolate (source animal id): 124 | isolate (source animal id): 127 | isolate (source animal id): 128 | isolate (source animal id): 130 | isolate (source animal id): 132 | isolate (source animal id): 135 | isolate (source animal id): 140 | isolate (source animal id): 141 | isolate (source animal id): 142 | isolate (source animal id): 144 | isolate (source animal id): 146 | isolate (source animal id): 147 | isolate (source animal id): 151 | isolate (source animal id): 153 | isolate (source animal id): 154 | isolate (source animal id): 156 | isolate (source animal id): 157 | isolate (source animal id): 176 | isolate (source animal id): 183 | isolate (source animal id): 186 | isolate (source animal id): 196 | isolate (source animal id): 198 | isolate (source animal id): 200 | isolate (source animal id): 206 | isolate (source animal id): 208 | isolate (source animal id): 210 | isolate (source animal id): 212 | isolate (source animal id): 215 | isolate (source animal id): 216 | isolate (source animal id): 218 | isolate (source animal id): 219 | isolate (source animal id): 224 | isolate (source animal id): 228 | isolate (source animal id): 230 | isolate (source animal id): 233 | isolate (source animal id): 238 | isolate (source animal id): 239 | isolate (source animal id): 241 | isolate (source animal id): 242 | isolate (source animal id): 243 | isolate (source animal id): 245 | isolate (source animal id): 246 | isolate (source animal id): 247 | isolate (source animal id): 248 | isolate (source animal id): 250 | isolate (source animal id): 251 | isolate (source animal id): 252 | isolate (source animal id): 254 | isolate (source animal id): 258 | isolate (source animal id): 259 | isolate (source animal id): 262 | isolate (source animal id): 264 | isolate (source animal id): 265 | isolate (source animal id): 266 | isolate (source animal id): 267 | isolate (source animal id): 269 | isolate (source animal id): 271 | isolate (source animal id): 272 | isolate (source animal id): 274 | isolate (source animal id): 276 | isolate (source animal id): 278 | isolate (source animal id): 280 | isolate (source animal id): 281 | isolate (source animal id): 283 | isolate (source animal id): 288 | isolate (source animal id): 291 | isolate (source animal id): 292 | isolate (source animal id): 296 | isolate (source animal id): 306 | isolate (source animal id): 336 | isolate (source animal id): 337 | isolate (source animal id): 341
